Results as given in US11078496B2, “System for F-box hormone receptor regulated protein expression in mammalian cells” (ICAHN SCHOOL OF MEDICINE AT MOUNT SINAI, priority 2016, dated 2021).

Test system: CCE A-CHK1 clone #2 cells
Experiment: Competition assay of A-CHK1 clone #2 cells against GFP-A CCE cells
Format: cell-based, mouse
Conditions: 50 μM IAA-treated A-CHK1 cells compared to the EtOH-treated controls
Method: FIGS. 6A-6E show CHK1 depletion under normal growth conditions in mESCs. FIG. 6A show images of cells assayed for alkaline phosphatase activity. CCE mESCs were infected with pRAIDRS GFP-A or A-CHK1 and selected in the presence of EtOH (“Con”) or auxin (“IAA”). After colonies emerged, cells were assayed for alkaline phosphatase activity. Left, low magnification scans. Right, bright-field microscope images. Scale bars, 100 μm. […] FIG. 6B are graphs showing populations doubling, following selection, of the indicated clones cultured in the presence of 0.01% EtOH (solid lines) or 50 μM IAA (dashed lines). Cells were counted and replated every 3-4 days and population doublings were calculated as Log2 (cell output/cell input). Experiment was conducted once for these clones. […] Cells were collected every 2-3 days and assayed for GFP and mCherry fluorescence by flow cytometry. The percentage of A-CHK1 cells was calculated for each time point and the values for the auxin-treated cells were normalized to those of EtOH-treated cells. An average growth rate decrease of 8% per day was calculated for auxin-treated A-CHK1 cells compared to the EtOH-treated controls. […] In FIG. 6E, the indicated clones were treated with 0.01% EtOH or 50 μM auxin (“IAA”) for 3 days and analyzed for the expression of self-renewal and differentiation markers by QRT-PCR. […]

In the case of `O=C(O)Cc1c[nH]c2ccccc12` [auxin, indole-3-acetic acid], the “average growth rate decrease” value is reported as 8 % per day.
